Records with an inconclusive call do not appear. Activity calls are given as the source filed them. How the calls were made is not given here. Residues, ends and D or L forms follow the SMILES beside them.
Each compound was assayed on S. typhimurium/E. coli reverse mutation, colony counts (assay: Bacterial reverse mutation test (aka Ames test) summary data;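 further: His-minus Salmonella and trp-minus E. coli WP2 uvrA pKM101 with or without liver S9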).
Excerpt: The Ames test uses bacteria cultures to determine whether a substance causes mutations. Because there is a significant overlap between substances that are mutagens and those that are carcinogens, a quick and inexpensive mutagenicity test is useful as an initial screening for possible carcinogens.
The Ames test relies on specific strains of S. typhimurium, namely: TA97, TA98, TA100, TA102, TA104, TA1535, TA1537, and TA1538. In addition to the S. typhimurium strains, the test may also use the E. coli strain WP2 uvrA pKM101.
Each of the bacterial strains has a mutation that prevents it from making an amino acid (a protein building block) required for normal cell growth. The S. typhimurium strains are unable to manufacture histidine; the E. coli strain cannot manufacture tryptophan. The tester strains will not be able to grow without amino acid supplementation, unless the mutated gene is changed back to the correct DNA sequence (reversion mutation). Being exposed to a mutagenic chemical increases the chance that the mutant gene will be restored to the correct sequence, which allows the bacteria to grow and form colonies. Each substance under study is tested in a variety of bacterial strains with different types of altered DNA sequences in order to provide a comprehensive assessment of the mutagenic potential of the substance.
Some non-mutagenic substances are converted to mutagenic substances when metabolized by the liver; in contrast, some substances that are mutagenic in their natural state are converted to non-mutagens by the liver. All substances are tested in their natural state, as well as in the presence of liver enzymes that can produce this metabolic conversion of the test substance. Extracts of rat, hamster, or mouse liver enzymes (S9 mix) are used for this purpose.
D. Preparing the Cultures
Multiple sets of cultures are prepared using a range of doses and different amounts of liver enzymes for each bacterial strain. Each culture is prepared in a test tube containing a suspension of one bacterial strain and either an S9 mix or plain buffer solution. Then the test substance is added. Negative control cultures are established using the same ingredients, but without the test substance. Positive control cultures are established using known mutagens active in particular bacterial strains and metabolic conditions (for example, with or without S9). Once prepared, each culture is incubated for 20 minutes at 37° C. Agar is then added to the cultures, and the contents of each tube are poured onto the surface of a Petri dish that was prepared with standard bacterial culture medium. The plates are then incubated, usually for two days.
Depending on the substance to be tested, the exposure and incubation processes may be modified. These variations include:
- Elimination of the 20-minute incubation period in a test tube prior to plating (this method is referred to as the standard plate incorporation method)
- Enzymatic reduction of azo and diazo substances (this process occurs in the intestine or liver of animals) using a chemical called flavin mononucleotide (FMN) or intestinal bacterial preparations from rats
- Testing in sealed chambers such as desiccators for volatile and gaseous chemicals.
To validate the test, a trained investigator compares the number of colonies on the chemical-treated plates to the number of colonies on the negative control plates. If the substance under test is mutagenic, the chemical-treated plates will have a much greater number of colonies than the negative control plates.
- A positive response is a reproducible, dose-related increase in mutant colonies in any single strain, with or without the addition of S9 metabolic enzymes. While there is no minimum percentage of increase required for a result to be considered positive, a twofold increase in mutant colonies in a treated plate is usually considered to be a positive (mutagenic) response.
[…]
For `c1ccc(CSCc2ccccc2)cc1`, the outcome was “inactive; negative”. In the case of `COC(=O)[C@H](Cc1ccccc1)NC(=O)[C@@H](N)CC(=O)O` (H-Asp-Phe-OMe), the outcome is reported as “inactive; negative”. For `CCNCC`, the outcome was “inactive; negative”. With `[CH3][Hg+]` the outcome was “inactive; negative”. For `CCCCCCCCCCC1CO1` (stereo not drawn), the outcome was “inactive; negative”. With `C=CCCC#N` the outcome was “inactive; negative”. With `Cc1ccc(N)cc1[N+](=O)[O-]` the outcome was “active; positive”. `CC[C@H]1OC(=O)[C@H](C)[C@@H](O[C@H]2C[C@@](C)(OC)[C@@H](O)[C@H](C)O2)[C@H](C)[C@@H](O[C@@H]2O[C@H](C)C[C@H](N(C)C)[C@H]2O)[C@](C)(OC)C[C@@H](C)C(=O)[C@H](C)[C@@H](O)[C@]1(C)O` was tested, and the outcome was “inactive; negative”. For `CCN(CC)CC`, the outcome was “inactive; negative”. `COP(=O)(OC)O/C(=C\Cl)c1cc(Cl)c(Cl)cc1Cl` was tested, and the outcome was “inactive; negative”. For `ClC(Cl)(Cl)c1ccccc1`, the outcome was “active; positive”. For `O=Cc1ccccc1Cl`, the outcome was “inactive; negative”. For `Cc1ccc(CO)cc1`, the outcome was “inactive; negative”. With `CCCCOC(=O)c1ccccc1C(=O)OC1CCCCC1` the outcome was “inactive; negative”. For `CN(C)c1ccc(C(=O)c2ccc(N(C)C)cc2)cc1`, the outcome was “active; positive”. In the case of `COc1ccc(C(=O)c2ccccc2O)c(O)c1`, the outcome is reported as “active; positive”. In the case of `Oc1ccc2c(c1)OCO2`, the outcome is reported as “inactive; negative”. With `CC(C)(OO)c1ccccc1` the outcome was “active; positive”. For `C=C1CC/C=C(\C)CC[C@@H]2[C@@H]1CC2(C)C`, the outcome was “inactive; negative”. `Cc1ccc(N(C)C)cc1` was tested, and the outcome was “inactive; negative”. With `C1=CC2C3C=CC(C3)C2C1` (stereo not drawn) the outcome was “inactive; negative”. For `S=C=S`, the outcome was “inactive; negative”. For `ClC1(Cl)C2(Cl)C3(Cl)C4(Cl)C(Cl)(Cl)C5(Cl)C3(Cl)C1(Cl)C5(Cl)C24Cl` (stereo not drawn), the outcome was “inactive; negative”. `CSSC` was tested, and the outcome was “inactive; negative”. `CCCCCCCCCCCCS` was tested, and the outcome was “inactive; negative”. For `C=C(F)F`, the outcome was “active; positive”. In the case of `Cc1cc(C(=O)O)ccc1[N+](=O)[O-]`, the outcome is reported as “active; positive”. For `CC(=O)c1cc(C)oc1C`, the outcome was “active; positive”. In the case of `CCCCC(CC)COP(OCC(CC)CCCC)OCC(CC)CCCC` (stereo not drawn), the outcome is reported as “inactive; negative”. With `CN(C)C(=O)Nc1cccc(C(F)(F)F)c1` the outcome was “inactive; negative”. With `N#C/C(N)=C(/N)C#N` the outcome was “inactive; negative”. With `Oc1ccc(Cl)cc1` the outcome was “inactive; negative”. In the case of `O=C(O)CN(CCN(CC(=O)O)CC(=O)O)CC(=O)O`, the outcome is reported as “inactive; negative”. In the case of `NC1(C(=O)O)CCCC1`, the outcome is reported as “inactive; negative”. For `Nc1cccc(S(=O)(=O)O)c1`, the outcome was “inactive; negative”. With `C=C(C)C(=O)OCC(C)C` the outcome was “inactive; negative”. With `CCCCNCC` the outcome was “inactive; negative”. In the case of `CCOC(=O)C1OC1c1ccccc1` (stereo not drawn), the outcome is reported as “inactive; negative”. In the case of `O=C1CCCCC1`, the outcome is reported as “inactive; negative”. `NC(=O)c1cccnc1` was tested, and the outcome was “inactive; negative”. With `COP(=O)(O)OC` the outcome was “inactive; negative”. `Cc1ccc(C(=O)O)cc1` was tested, and the outcome was “inactive; negative”. For `ClC=CC[N+]12CN3CN(CN(C3)C1)C2`, the outcome was “active; weakly positive”. With `CCC=CC#N` the outcome was “inactive; negative”. In the case of `c1ccc2c(c1)ccc1ncccc12`, the outcome is reported as “active; positive”. In the case of `O=C1c2c(O)cccc2Cc2cccc(O)c21`, the outcome is reported as “inactive; negative”. With `O=[N+]([O-])CCO` the outcome was “active; positive”. With `O=c1[nH][nH]c(=O)c2cc([N+](=O)[O-])ccc12` the outcome was “active; positive”. In the case of `CCOC(=O)OCC`, the outcome is reported as “inactive; negative”. In the case of `C1CCCC1`, the outcome is reported as “inactive; negative”. With `SCCc1cnccn1` the outcome was “inactive; negative”. For `CCCCCc1cc(O)c2c(c1)OC(C)(C)[C@@H]1CCC(C)=C[C@@H]21`, the outcome was “inactive; negative”. For `CC(C)Nc1ccc(Nc2ccccc2)cc1`, the outcome was “inactive; negative”. For `O=[N+]([O-])c1ccc(F)c([N+](=O)[O-])c1`, the outcome was “active; positive”. In the case of `O=C(O)C(F)(F)C(F)(F)C(F)(F)C(F)(F)C(F)(F)C(F)(F)C(F)(F)C(F)(F)C(F)(F)F`, the outcome is reported as “inactive; negative”. In the case of `CC(O)CN(CC(C)O)CC(C)O` (stereo not drawn), the outcome is reported as “inactive; negative”. With `O=C(O)C1C(C(=O)O)C2(Cl)C(Cl)=C(Cl)C1(Cl)C2(Cl)Cl` (stereo not drawn) the outcome was “inactive; negative”. With `Nc1cc(S(=O)(=O)O)ccc1O` the outcome was “inactive; negative”. For `O=C(OCC(COC(=O)c1ccccc1)(COC(=O)c1ccccc1)COC(=O)c1ccccc1)c1ccccc1`, the outcome was “inactive; negative”. With `CCN(CC)c1ccc(C(=C2C=CC(=[N+](CC)CC)C=C2)c2ccc(S(=O)(=O)O)cc2S(=O)(=O)[O-])cc1` the outcome was “active; positive”. In the case of `C[C@H]1CCCC(=O)CCC/C=C/c2cc(O)cc(O)c2C(=O)O1`, the outcome is reported as “inactive; negative”. With `N[C@H](Cc1ccccc1)C(=O)O` the outcome was “inactive; negative”. For `CCCCCCCCCCCCCCCCCCCCCCCCCCCCO`, the outcome was “inactive; negative”. In the case of `CS(=O)(=O)OCCCCOS(C)(=O)=O`, the outcome is reported as “active; positive”. `Cc1c(O)cccc1C(=O)N[C@@H](CSc1ccccc1)[C@H](O)CN1C[C@H]2CCCC[C@H]2C[C@H]1C(=O)NC(C)(C)C` was tested, and the outcome was “inactive; negative”. With `CCN(CC)c1cccc(O)c1` the outcome was “active; positive”. With `CC(C)=CCC/C(C)=C/CC/C(C)=C/CC/C=C(\C)CC/C=C(\C)CCC=C(C)C` the outcome was “inactive; negative”. For `Cc1ccc(N)c(N)c1`, the outcome was “active; positive”. For `NCCCNCCCN`, the outcome was “inactive; negative”. In the case of `ClCCBr`, the outcome is reported as “active; positive”. For `CC(=O)Nc1ccc(C(=O)CCl)cc1`, the outcome was “active; positive”. In the case of `CCCC[N+](=O)[O-]`, the outcome is reported as “inactive; negative”. For `CCN(CC)CCO`, the outcome was “inactive; negative”. In the case of `CCCCn1cc[n+](C)c1`, the outcome is reported as “inactive; negative”. With `O=C(O)C(Cl)(Br)Br` the outcome was “active; positive”. `CC(CC(=O)O)C(=O)O` (stereo not drawn) was tested, and the outcome was “inactive; negative”. `Cc1cc(=O)oc2cc(O)cc(O)c12` was tested, and the outcome was “inactive; negative”. `C=C(C#N)C(=O)OCC` was tested, and the outcome was “inactive; negative”. In the case of `O=[N+]([O-])c1c(Cl)c(Cl)cc(Cl)c1Cl`, the outcome is reported as “active; weakly positive”. `NCCS(=O)(=O)O` was tested, and the outcome was “inactive; negative”. With `C[C@]12CCC(=O)C=C1CC[C@@H]1[C@@H]2CC[C@]2(C)C(=O)CC[C@@H]12` the outcome was “inactive; negative”. For `Cc1ccncc1`, the outcome was “inactive; negative”. For `COc1ccc2nc(N)sc2c1`, the outcome was “active; positive”. In the case of `CC(O)CNCC(C)O` (stereo not drawn), the outcome is reported as “inactive; negative”. `O=C(/C=C/C=C/c1ccc2c(c1)OCO2)N1CCCCC1` was tested, and the outcome was “inactive; negative”. In the case of `O=C(Nc1ccc(Br)cc1)c1cc(Br)cc(Br)c1O`, the outcome is reported as “inactive; negative”. `O=NN(CCO)CCO` was tested, and the outcome was “active; positive”. `O=Cc1ccc(CO)o1` was tested, and the outcome was “active; weakly positive”. `CCC1CO1` (stereo not drawn) was tested, and the outcome was “active; positive”. In the case of `COC(=O)c1ccc(C)cc1`, the outcome is reported as “inactive; negative”. With `Nc1ccc(N)c2ccccc12` the outcome was “active; positive”. For `O=Nc1ccc(O)cc1`, the outcome was “active; weakly positive”. For `CNC(=O)ON=CC(C)(C)SC`, the outcome was “inactive; negative”. With `c1ccsc1` the outcome was “inactive; negative”. With `C=CC(=O)OCC(C)C` the outcome was “inactive; negative”. With `O=C(OOC(=O)c1ccccc1)c1ccccc1` the outcome was “inactive; negative”. With `COc1ccc(C(c2ccc(OC)cc2)C(Cl)(Cl)Cl)cc1` the outcome was “inactive; negative”. For `Cc1ccc2nc(-c3ccc(N)cc3)sc2c1`, the outcome was “active; positive”. In the case of `C=CC(=O)NC(C)(C)CC(C)=O`, the outcome is reported as “inactive; negative”. With `Cc1cc(N=Nc2ccccc2C)ccc1N` the outcome was “active; positive”. For `OCCCCO`, the outcome was “inactive; negative”. In the case of `Nc1ccc(N)c2c1C(=O)c1c(N)ccc(N)c1C2=O`, the outcome is reported as “active; positive”. With `Nc1ccc2cc(S(=O)(=O)O)c(N=Nc3ccc(-c4ccc(N=Nc5ccc(O)c(C(=O)O)c5)cc4)cc3)c(O)c2c1` the outcome was “active; positive”.
